Measured values: the CheMixHub viscosity set
Values joined by “and” are separate entries in the source; they are usually repeats but may differ in a detail not shown here. Equal values may be shown once. ± gives the uncertainty stated by the source.

Experiment: xn = mol fraction of the nth substance listed

CCCOC(C)=O + CCCO
viscosity [mPa·s], 101.3 kPa
Conditions	x2 = 0.3042	x2 = 0.5372	x2 = 0.7245	x2 = 0.8572
298.15 K	0.592 ± 0.016	0.755 ± 0.02	0.987 ± 0.026	1.305 ± 0.035
308.15 K	0.53 ± 0.014	0.653 ± 0.017	0.829 ± 0.022	1.066 ± 0.028

CCN(CC)CC + CCCCCC
viscosity [mPa·s], 101.33 kPa
Conditions	x1 = 0.1076	x1 = 0.2064	x1 = 0.4089	x1 = 0.5106	x1 = 0.6081	x1 = 0.804	x1 = 0.9018
303.15 K	0.2744 ± 0.0033	0.276 ± 0.0033	0.2838 ± 0.0033	0.2911 ± 0.0034	0.3002 ± 0.0035	0.3248 ± 0.0037	0.3408 ± 0.0038
313.15 K	0.2432 ± 0.003	0.2489 ± 0.0031	0.2626 ± 0.0032	0.271 ± 0.0032	0.2799 ± 0.0033	0.3004 ± 0.0035	0.3125 ± 0.0036

CCCC(C)=O + CC(C)=O
viscosity [mPa·s], 101 kPa
Conditions	x1 = 0.2	x1 = 0.4	x1 = 0.6	x1 = 0.8
293.15 K	0.355 ± 0.004	0.391 ± 0.004	0.429 ± 0.005	0.467 ± 0.005
313.15 K	0.294 ± 0.003	0.322 ± 0.004	0.349 ± 0.004	0.377 ± 0.004

CCCOC(C)=O + ClC(Cl)(Cl)Cl
101.33 kPa
Conditions	viscosity [mPa·s]
303.15 K, x2 = 0.0422	0.526 ± 0.005
303.15 K, x2 = 0.1298	0.547 ± 0.005
303.15 K, x2 = 0.2541	0.576 ± 0.005
303.15 K, x2 = 0.3334	0.598 ± 0.005
303.15 K, x2 = 0.488	0.639 ± 0.005
303.15 K, x2 = 0.5271	0.657 ± 0.005
303.15 K, x2 = 0.6005	0.676 ± 0.006
303.15 K, x2 = 0.7049	0.716 ± 0.006
303.15 K, x2 = 0.8748	0.784 ± 0.006
303.15 K, x2 = 0.9403	0.815 ± 0.007
313.15 K, x2 = 0.2073	0.494 ± 0.004
313.15 K, x2 = 0.4055	0.541 ± 0.005
313.15 K, x2 = 0.5078	0.568 ± 0.005
313.15 K, x2 = 0.601	0.593 ± 0.005
313.15 K, x2 = 0.802	0.661 ± 0.005

ClC(Cl)(Cl)Cl + Nc1ccccc1
298.15 K, 101.32 kPa
Conditions	viscosity [mPa·s]
x2 = 0.1018	0.991 ± 0.0008
x2 = 0.2047	1.111 ± 0.0008
x2 = 0.325	1.297 ± 0.0009
x2 = 0.3901	1.418 ± 0.0009
x2 = 0.4954	1.655 ± 0.001
x2 = 0.5976	1.914 ± 0.0011
x2 = 0.7051	2.263 ± 0.0011
x2 = 0.8076	2.672 ± 0.0012
x2 = 0.9265	3.3 ± 0.0013

ClC(Cl)(Cl)Cl + COC(=O)OC
viscosity [mPa·s], 101.33 kPa
Conditions	x2 = 0.0994	x2 = 0.201	x2 = 0.3063	x2 = 0.4005	x2 = 0.5036	x2 = 0.5982	x2 = 0.7031	x2 = 0.833	x2 = 0.8997
298.15 K	0.77 ± 0.02	0.724 ± 0.019	0.689 ± 0.018	0.656 ± 0.018	0.631 ± 0.017	0.608 ± 0.017	0.585 ± 0.016	0.557 ± 0.016	0.543 ± 0.016
303.15 K	0.719 ± 0.019	0.68 ± 0.018	0.646 ± 0.017	0.614 ± 0.017	0.588 ± 0.016	0.572 ± 0.016	0.548 ± 0.016	0.52 ± 0.015	0.511 ± 0.015
308.15 K	0.676 ± 0.018	0.633 ± 0.017	0.604 ± 0.016	0.575 ± 0.016	0.551 ± 0.015	0.536 ± 0.015	0.516 ± 0.015	0.493 ± 0.014	0.481 ± 0.014

CCCC(C)=O + CN(C)c1ccccc1
viscosity [mPa·s], 101 kPa
Conditions	303.15 K	308.15 K
x2 = 0.0756	0.574 ± 0.024	0.525 ± 0.022
x2 = 0.1362	0.669 ± 0.027	0.611 ± 0.025
x2 = 0.2003	0.76 ± 0.029	0.7 ± 0.028
x2 = 0.2795	0.875 ± 0.033	0.803 ± 0.031
x2 = 0.3412	0.941 ± 0.035	0.873 ± 0.033
x2 = 0.4101	1.012 ± 0.038	0.94 ± 0.035
x2 = 0.4921	1.072 ± 0.039	1.001 ± 0.037
x2 = 0.5741	1.112 ± 0.041	1.041 ± 0.038
x2 = 0.6512	1.134 ± 0.041	1.063 ± 0.039
x2 = 0.7214	1.143 ± 0.042	1.071 ± 0.039
x2 = 0.7914	1.148 ± 0.042	1.074 ± 0.039
x2 = 0.8512	1.15 ± 0.042	1.076 ± 0.04
x2 = 0.9214	1.159 ± 0.042	1.085 ± 0.04

ClC(Cl)(Cl)Cl + CCCCCO
viscosity [mPa·s], 101 kPa
Conditions	x2 = 0.0207	x2 = 0.0826	x2 = 0.3114	x2 = 0.4575	x2 = 0.5771	x2 = 0.8017
298.15 K	0.912 ± 0.009	0.971 ± 0.009	1.306 ± 0.012	1.62 ± 0.015	1.884 ± 0.018	2.761 ± 0.025
308.15 K	0.798 ± 0.008	0.84 ± 0.008	1.03 ± 0.01	1.241 ± 0.012	1.488 ± 0.014	2.103 ± 0.02
318.15 K	0.708 ± 0.007	0.741 ± 0.007	0.886 ± 0.009	1.037 ± 0.01	1.199 ± 0.011	1.647 ± 0.015

CCCOC(C)=O + CCCCOC(C)=O
viscosity [mPa·s], 101 kPa
Conditions	x1 = 0.2	x1 = 0.4	x1 = 0.6	x1 = 0.8
293.15 K	0.697 ± 0.007	0.67 ± 0.007	0.644 ± 0.007	0.618 ± 0.006
313.15 K	0.538 ± 0.006	0.519 ± 0.005	0.5 ± 0.005	0.481 ± 0.005

ClC(Cl)(Cl)Cl + Cc1cccc(C)c1
298.15 K, 101 kPa
Conditions	viscosity [mPa·s]
x1 = 0.1974	0.609 ± 0.009
x1 = 0.3803	0.665 ± 0.01
x1 = 0.4687	0.716 ± 0.011
x1 = 0.5267	0.751 ± 0.012
x1 = 0.5964	0.792 ± 0.012
x1 = 0.7155	0.851 ± 0.013
x1 = 0.8693	0.894 ± 0.014
x1 = 0.9105	0.902 ± 0.014

CCN(CC)CC + CCCCO
303.15 K, 101 kPa
Conditions	viscosity [mPa·s]
x1 = 0.01087	2.223 ± 0.015
x1 = 0.02221	2.193 ± 0.015
x1 = 0.0326	2.162 ± 0.014
x1 = 0.04176	2.133 ± 0.014
x1 = 0.05247	2.098 ± 0.014
x1 = 0.06249	2.076 ± 0.014
x1 = 0.07262	2.052 ± 0.014
x1 = 0.08419	2.019 ± 0.013
x1 = 0.09512	1.991 ± 0.013

CCCC(C)=O + CC(=O)O
viscosity [mPa·s], 101 kPa
Conditions	x2 = 0.0997	x2 = 0.1996	x2 = 0.2989	x2 = 0.3983	x2 = 0.5013	x2 = 0.6017	x2 = 0.6987	x2 = 0.8081	x2 = 0.8922
298.15 K	0.5074 ± 0.013	0.5482 ± 0.015	0.5923 ± 0.016	0.6401 ± 0.017	0.6986 ± 0.018	0.7628 ± 0.02	0.839 ± 0.022	0.9225 ± 0.024	1.011 ± 0.027
308.15 K	0.4551 ± 0.012	0.4882 ± 0.013	0.5246 ± 0.014	0.5655 ± 0.015	0.6134 ± 0.016	0.667 ± 0.018	0.727 ± 0.019	0.8006 ± 0.021	0.878 ± 0.023
318.15 K	0.4061 ± 0.011	0.4339 ± 0.012	0.4639 ± 0.012	0.4989 ± 0.013	0.5394 ± 0.014	0.5838 ± 0.015	0.635 ± 0.017	0.6961 ± 0.018	0.7519 ± 0.02

CC1CCCCC1O (stereo not given) + c1ccccc1
293.15 K, 101 kPa
Conditions	viscosity
x2 = 0.33	3.2 ± 0.1 mPa·s
x2 = 0.5	1.8 ± 0.1 mPa·s
x2 = 0.6	1.5 ± 0.1 mPa·s
x2 = 0.7	1.3 ± 0.1 mPa·s
x2 = 0.8	1.1 ± 0.1 mPa·s and 1 ± 0.1 mPa·s

CCCC[N+](CCCC)(CCCC)CCCC.[I-] + CCCCCCCCCO
101.3 kPa, x1 = 0.0476
Conditions	viscosity [mPa·s]
293.15 K	16.29 ± 0.39
298.15 K	13.16 ± 0.32
303.15 K	10.92 ± 0.26
308.15 K	9.085 ± 0.22
313.15 K	7.675 ± 0.18
318.15 K	6.439 ± 0.15
323.15 K	5.529 ± 0.13

CCCOC(C)=O + CCCCCCCCO
viscosity [mPa·s], 101 kPa
Conditions	x2 = 0.075	x2 = 0.1542	x2 = 0.2382	x2 = 0.3272	x2 = 0.4218	x2 = 0.5225	x2 = 0.6299	x2 = 0.7448	x2 = 0.8678
298.15 K	0.692 ± 0.042	0.851 ± 0.051	1.053 ± 0.063	1.316 ± 0.079	1.666 ± 0.1	2.143 ± 0.13	2.823 ± 0.17	3.811 ± 0.23	5.28 ± 0.32
303.15 K	0.638 ± 0.038	0.776 ± 0.047	0.955 ± 0.058	1.185 ± 0.071	1.488 ± 0.09	1.897 ± 0.11	2.47 ± 0.15	3.302 ± 0.2	4.526 ± 0.27
308.15 K	0.584 ± 0.035	0.705 ± 0.043	0.862 ± 0.052	1.061 ± 0.064	1.323 ± 0.08	1.671 ± 0.1	2.154 ± 0.13	2.848 ± 0.17	3.868 ± 0.23
313.15 K	0.533 ± 0.032	0.638 ± 0.038	0.774 ± 0.047	0.95 ± 0.057	1.177 ± 0.071	1.475 ± 0.089	1.885 ± 0.11	2.468 ± 0.15	3.326 ± 0.2
